Assays:
[1] = tested on: arachidonic acid induced dermal inflammation; assay: Arachidonic acid induced dermal inflammation (ear thickness); type: in vivo, Female BALB/c mice; settings: for reduction in the level of arachidonic acid-induced dermal inflammation: intraperitoneally, TRG 2409-2 or TRG 2409-14 100 or 300 μg/mouse, FIG. 5; for inflammation in response to arachadonic acid administration: mouse, in vivo
Description: Female BALB/c mice (17-22 g) were used and administered the test isoquinoline compounds or positive control compounds 30 to 60 min prior to topical application of arachidonic acid. Indomethacin and HP 228 were used as positive controls. Compounds were administered orally (p.o.) or intraperitoneally (i.p.). Initial ear thickness (left and right) was measured using spring loaded micro-calipers. Arachidonic acid was applied to mice anesthetized with a cocktail of ketamine/xylazine (7.0 mg/ml and 0.6 mg/ml, respectively) administered i.p. (300 μl/mouse). Utilizing a micro-pipette, 20 μl of arachidonic acid solution (100 mg/ml ethanol or acetone) was applied to the right ear (10 μl to inner and 10 μl to outer surfaces of […] for a total of 2 mg arachidonic acid per right ear), and 20 μl of vehicle (ethanol or acetone) was applied to the left ear. Mice were returned to their cages to recover. Mice were again anesthetized 50 min after arachidonic acid application and their ears measured.
Dermal inflammation was determined by subtracting the difference of the vehicle treated left ear (L60−L0) from the difference of the arachidonic acid treated right ear (R60−R0). Ear thickness measurements were averaged for each group, and the responses in the vehicle treated control group (Cr; saline or PBS) were subtracted from the response noted in the isoquinoline compound treated group (Tr) to give the relative inflammatory response for each treatment group compared to the control group. The percent inhibition is defined by the equation: % inhibition=(Cr−Tr)/(Cr)×100.

[2] = Body weight and food consumption after i.p. administration; type: in vivo, Sprague-Dawley rats; settings: for reducing body weight and food consumption: rat, in vivo; for body weight relative to control / food consumption / weight gain: rats, 5 mg/kg i.p.; for body weight relative to control: at 9 hours as well as 18 hours, FIG. 7; for food consumption / weight gain: 18 hours after injection, FIG. 6
Excerpt: Adult male Sprague-Dawley rats (175-225 g) were used to assess the effect of isoquinoline compounds on food uptake and body weight. Baseline body weight and food consumption measurements were taken for 3 days prior to start of the study (Day 0). On Day −1, the food was taken away from the animals at 5:00 PM. The next morning (Day 0), body weight measurements were taken, and the animals were divided into treatment groups with 6 animals in each group. The treatment groups were saline control, HP 228 positive control and test isoquinoline compounds. Saline was administered i.p. at 1 ml/kg. HP 228 and test isoquinoline compounds were administered i.p. at 5 mg/kg. The injections were initiated at 2:00 PM on Day 0.
Body weight and food consumption measurements were taken at 9 hr (Day 0; 11:00 PM) and at 18 hr (Day 1, 8:00 AM) after injection. At the end of the study, all evaluated parameters (9 and 18 hour body weight and food consumption) were analyzed by standard statistical methods. Significance (P<0.05) was determined by one-way ANOVA, ANOVA for repeated measures, or Student's t-test.
The level of reduction was similar to that seen with HP 228.

[3] = 100 μg/mouse administered intraperitoneally, FIG. 4

Structure (SMILES)	reduction in the level of arachidonic acid-induced dermal inflammation ([1]; HP 228 100 μg/mouse)	inflammation in response to arachadonic acid administration [1]	inhibition of arachidonic acid induced dermal inflammation [1, 3]	reducing body weight and food consumption [2]	body weight relative to control [2]	food consumption [2]	weight gain [2]	inhibition of arachidonic acid induced dermal inflammation ([1]; administered intraperitoneally, TRG 2405-241 300 μg/mouse, HP 228 100 μg/mouse, FIG. 3)	inhibition of arachidonic acid induced dermal inflammation ([1]; administered orally, TRG 2405-241 600 μg/mouse, indomethacin 1 mg/mouse, FIG. 2)
CCCCNc1ccc(C2C(CNC3CCCCC3)c3ccccc3CN2CCCCC(CN)NC)cc1 (stereo not drawn) [TRG 2409-14]	decreased dermal inflammation to a lesser extent than TRG 2409-2	reduced inflammation							
CNC(CN)CCCCN1Cc2ccccc2C(CNC2CCCCC2)C1c1ccc(Oc2ccccc2)cc1 (stereo not drawn) [TRG 2405-252]		reduced inflammation	inhibition of arachidonic acid induced dermal inflammation	particularly effective at reducing body weight and food consumption	significant differences				
CCCCNc1ccc(C2C(CNCc3ccccc3O)c3ccccc3CN2CCCCC(CN)NC)cc1 (stereo not drawn) [TRG 2409-2]	dose dependent reduction in the level of arachidonic acid-induced dermal inflammation	reduced inflammation							
CNC(CN)CCCCN1Cc2ccccc2C(CNC2CCCCC2)C1c1ccc(Cl)cc1Cl (stereo not drawn) [TRG 2405-190]		reduced inflammation	inhibition of arachidonic acid induced dermal inflammation	particularly effective at reducing body weight and food consumption		significant decrease	significant decrease		
CNC(CN)CCCCN1Cc2ccccc2C(CNC2CCCCC2)C1c1ccc(-c2ccccc2)cc1 (stereo not drawn) [TRG 2405-241]		reduced inflammation	inhibition of arachidonic acid induced dermal inflammation	particularly effective at reducing body weight and food consumption		significant decrease	significant decrease	comparable to that seen with HP 228	comparable to that seen with indomethacin
CCCOc1ccc(C2C(CNC3CCCCC3)c3ccccc3CN2CCCCC(CN)NC)cc1 (stereo not drawn) [TRG 2405-253]		reduced inflammation	inhibition of arachidonic acid induced dermal inflammation	particularly effective at reducing body weight and food consumption	significant differences				

Reference: US6608082B1, “Treatment of erectile dysfunction using isoquinoline compound melanocortin receptor ligands” (Lion Bioscience AG, priority 1998, dated 2003)
